Measured values: publication PMC8822125, “RW-BP100-4D, a Promising Antimicrobial Candidate With Broad-Spectrum Bactericidal Activity” (Frontiers in Microbiology, 2022)
Converted amounts (≈) assume the structure as drawn. Where a SMILES comes first, the peptide text is derived from it. Where no end group is shown, it is not given here.

Tests used:
[1] = test system: methicillin-resistant S. aureus ATCC33591; assay: Mouse skin infection model; type: in vivo; settings: 24 h
Protocol: (§1) Female ICR mice (∼18 g, four weeks old) bought from Yangzhou University were used in this study. They were reared with ad libitum access to drinking water and antibiotic-free feed. The animal experiments were conducted in strict accordance with the Laboratory Animal Welfare and Animal Experimental Ethical Certificate, as issued by Committee on Animal Welfare and Experimental Ethics in Jiangsu Academy of Agricultural Sciences (approval no. JAAS20200516 and JAAS20211208).
(§2) The mouse skin infection model and bacteremia model were established to evaluate the treatment efficacy of RW-BP100-4D on local and system infections, respectively. In each model, ICR female mice were equally allocated into different treatment groups and each group contained six mice. The mouse skin infection model and bacteremia model were constructed according to previously described methods ([Natalia et al., 2019]; [Song et al., 2020]). The mice were challenged with methicillin-resistant S. aureus ATCC33591 (mecA+, MRSA) via spreading on skin lesion (5 × 10^5 CFU/mL, 0.1 mL) or intraperitoneal injection (3.0 × 10^8CFU/mL, 0.5 mL). […] S. aureus isolates were counted by using the Chromagar selective agar (Chromagar, France) supplemented with 8 μg/mL oxacillin.

various microorganisms = assay: MIC/MBC, summary statements over several strains; type: cell-based
[2] = test system: S. aureus ATCC29213 mature biofilm; assay: Mature biofilm dispersal assay (crystal violet); type: cell-based, Staphylococcus aureus; settings: peptide 200 μg/mL, 30 min, 37°C on 24 h biofilm, crystal violet OD590
Protocol: Each test was performed with three independent repeats.

human erythrocytes = settings: peptide 4.9 μM; ref Torcato et al., 2013; cited from earlier work
HeLa = settings: peptide concentration 11 μM; ref Torcato et al., 2013; cited from earlier work
S. enterica ATCC13076 = assay: Intracellular antibacterial activity in MAC-T cells; type: cell-based, Salmonella enterica; settings: 2 h, infected MAC-T cells
Protocol: (§3) The intracellular antibacterial activity of RW-BP100-4D against S. aureus ATCC29213 and S. enterica ATCC13076 were determined as described previously ([John et al., 2019]). MAC-T cells were cultured in a 12-well plate and then infected with S. aureus ATCC29213 or S. enterica ATCC13076 (∼10^5CFU, MOI = 10) for 1 h. The spare bacteria were eliminated by treating with kanamycin (100 μg/mL) for 1 h. After that, kanamycin was removed by washing with PBS for 4 times. Then RW-BP100-4D or RW-BP100 were added to a final concentration of 50 μg/mL, respectively and incubated for 2 h. Meanwhile, kanamycin (50 μg/mL) and PBS were set as the antibiotic treatment group and treatment control group, respectively. Finally, MAC-T cells were treated with 0.1% TritonX-100. The lysates were serially diluted and spread on selective agar plates to enumerate the intracellular live bacteria. Each test was performed with three independent repeats.

S. aureus ATCC29213 = assay: as above; type: cell-based, Staphylococcus aureus; settings: 2 h, infected MAC-T cells
Protocol: as §3

[3] = test system: methicillin-resistant S. aureus ATCC33591; assay: Mouse bacteremia model; type: in vivo; settings: 25 mg/kg intraperitoneal 2 h after infection; 24 h
Protocol: as §1, §2

[4] = test system: Escherichia coli and Psudomnas aeruginosa isolates; set-up: method as in Ferre et al., 2009; settings: ref Ferre et al., 2009; cited from earlier work
[5] = test system: Staphylococcus aureus ATCC29213; assay: MIC/MBC, broth microdilution; type: cell-based; settings: Table 1; broth microdilution CLSI M100-S25, MH broth, 37°C, 18 h, three independent repeats
[6] = test system: Escherichia coli ATCC25922; settings: Table 1; broth microdilution CLSI M100-S25, MH broth, 37°C, 18 h, three independent repeats
MAC-T cells = settings: peptide 150 μg/mL, 24 h, WST-1, mean ± SD, three repeats
sheep red blood cells = sheep red blood cells in PBS, 37°C, 1 h, OD576, relative to melittin, mean ± SD, three repeats;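 note: hemolysis expressed in % from supernatant absorbance, with PBS-treated cells as 0% baseline and melittin as 100%, peptide mixed 1:1 with an 8% v/v erythrocyte suspension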
RAW264.7 cells = settings: peptide 150 μg/mL, 24 h, WST-1, mean ± SD, three repeats

Compound: CC1(C)S[C@@H]2[C@H](NC(=O)[C@H](N)c3ccccc3)C(=O)N2[C@H]1C(=O)O [ampicillin]
- Bacteria load in infected mouse skin, antibiotic control ([1]; ampicillin 1 mg/mL, 100 μL on skin lesion): did not decrease the bacteria load

Compound: RRLFRRILRWL-NH2 [RW-BP100]
- Reduction of S. aureus ATCC33591 in infected mouse skin ([1]; peptide 50 μg (1 mg/mL, 50 μL) on skin lesion 2 h after infection, ICR female mice): 3.13 log
- MBC values relative to the corresponding MIC values (various microorganisms; over the strains of Table 2): 4–8 fold
- Mature biofilm matrix lost compared to the PBS control [2]: 29.4%
- Hemolytic rate toward human erythrocytes (human erythrocytes): 50%
- Cell death rate of HeLa (HeLa): 73%
- Elimination of intracellular S. enterica ATCC13076 (S. enterica ATCC13076; peptide 50 μg/mL, CFU count): 2.57 log
- Elimination of intracellular S. aureus ATCC29213 (S. aureus ATCC29213; peptide 50 μg/mL, CFU count): 2.34 log
- Bacterial loads in heart, liver and kidney at 25 mg/kg [3]: did not significantly reduce

Compound: NC[C@H]1O[C@H](O[C@H]2[C@H](O)[C@@H](O[C@H]3O[C@H](CO)[C@@H](O)[C@H](N)[C@H]3O)[C@H](N)C[C@@H]2N)[C@H](O)[C@@H](O)[C@@H]1O [kanamycin]
- Intracellular CFU versus the untreated group, S. enterica ATCC13076 (S. enterica ATCC13076; kanamycin 50 μg/mL): no significant difference
- Intracellular CFU versus the untreated group, S. aureus ATCC29213 (S. aureus ATCC29213; kanamycin 50 μg/mL): no significant difference

Compound: KKLFKKILKYL-NH2 [BP100, short cationic AMP of 11 amino acids (…-NH2), hybrid of cecropin A and melittin]
- MIC against Escherichia coli and Psudomnas aeruginosa isolates [4]: 2.5 to 5 µM

Compound: CC[C@@H](C)[C@@H](NC(=O)[C@@H](CCCNC(=N)N)NC(=O)[C@@H](CCCNC(=N)N)NC(=O)[C@@H](Cc1ccccc1)NC(=O)[C@@H](CC(C)C)NC(=O)[C@@H](CCCNC(=N)N)NC(=O)[C@H](N)CCCNC(=N)N)C(=O)N[C@H](CC(C)C)C(=O)N[C@H](CCCNC(=N)N)C(=O)N[C@H](Cc1c[nH]c2ccccc12)C(=O)N[C@H](CC(C)C)C(N)=O [RW-BP100-All-D] (HELM PEPTIDE1{[dR].[dR].[dL].[dF].[dR].[dR].[dI].[dL].[dR].[dW].[dL].[am]}$$$$V2.0)
- MIC Staphylococcus aureus ATCC29213 [5]: 6 µg/mL (≈ 3.79 µM)
- MIC against S. aureus ATCC29213 and E. coli ATCC25922 (both strains together) (various microorganisms; summary of Table 1): 3 to 12 µg/mL
- MIC Escherichia coli ATCC25922 [6]: 6 µg/mL (≈ 3.79 µM)
- Cell survival rate, MAC-T (MAC-T cells): 14.23 ± 2.37%
- Hemolytic rate, 50 μg/mL (sheep red blood cells; 50 μg/mL peptide): 1.94 ± 0.94%
- Hemolytic rate, 100 μg/mL (sheep red blood cells; 100 μg/mL peptide): 2.75 ± 0.23%
- Hemolytic rate, 150 μg/mL (sheep red blood cells; 150 μg/mL peptide): 30.39 ± 2.11%
- Hemolytic rate, 300 μg/mL (sheep red blood cells; 300 μg/mL peptide): 51.40 ± 1.94%
- Cell survival rate, RAW264.7 (RAW264.7 cells): 23.37 ± 1.58%
